Legend:
[1] = system: basal cells and pyramidal cells of the airway epithelium; experiment: miRNA expression in sorted basal cells versus pyramidal cells (ciliated + secretory), HTS and Agilent chips; design: species or system human; details: for Modulation of expression of the miRNAs in pyramidal cells (323(−)) relative to basal cells 323(+): HTS and Agilent chips; for Intensity of the level of expression in log2 in pyramidal cells (323(−)): pyramidal cells (ciliated + secretory)
How it was run: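 Epithelium dissociated from nasal polyps is held 30 min in PBS-BSA-EDTA, then labelled 20 min at 4° C for CD151 and tissue factor. After DAPI staining, live single cells are sorted into marker-double-positive and double-negative fractions, and sort purity and identity are verified. Total RNA then undergoes miRNA profiling on arrays or by sequencing.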

[2] = system: human airway epithelial cells (HAECs); experiment: Agilent miRNA chips, miRNA expression at four stages of differentiation of HAECs; details: for Modulation (ratio of the level of intensity of expression in log2 in two stages of differentiation) measured with the Agilent chips, D7 − D0 / Modulation (ratio of the level of intensity of expression in log2 in two stages of differentiation) measured with the Agilent chips, FC − D7 / Modulation (ratio of the level of intensity of expression in log2 in two stages of differentiation) measured with the Agilent chips, WD − D0 / Modulation (ratio of the level of intensity of expression in log2 in two stages of differentiation) measured with the Agilent chips, WD − FC / Level of intensity of expression in log2 measured with the Agilent chips, D0 / Level of intensity of expression in log2 measured with the Agilent chips, D7 / Level of intensity of expression in log2 measured with the Agilent chips, FC / Level of intensity of expression in log2 measured with the Agilent chips, WD: Table VI; for Modulation (ratio of the level of intensity of expression in log2 at two stages of differentiation), FC − D7 / Modulation (ratio of the level of intensity of expression in log2 at two stages of differentiation), WD − FC: Agilent miRNA chips, Table V; for Level of intensity of expression in log2 measured with the Agilent chips, D0: stage D0; for Level of intensity of expression in log2 measured with the Agilent chips, D7: stage D7; for Level of intensity of expression in log2 measured with the Agilent chips, FC: stage FC; for Level of intensity of expression in log2 measured with the Agilent chips, WD: stage WD
How it was run: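 Expression read from hybridization signals on Human miRNA Microarray v2 arrays spanning all miRBase v.12.0 human miRNAs plus 89 viral ones. Samples are RNA from the same patients profiled by sequencing, labelled with the standard kit.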

[3] = system: human airway epithelial cells (HAECs); experiment: High-throughput sequencing (HTS) of miRNAs at four stages of differentiation of HAECs; details: for Modulation (ratio of the level of intensity of expression in log2 in two stages of differentiation) measured by high-throughput sequencing, D7 − D0 / Modulation (ratio of the level of intensity of expression in log2 in two stages of differentiation) measured by high-throughput sequencing, FC − D7 / Modulation (ratio of the level of intensity of expression in log2 in two stages of differentiation) measured by high-throughput sequencing, WD − D0 / Modulation (ratio of the level of intensity of expression in log2 in two stages of differentiation) measured by high-throughput sequencing, WD − FC / Level of intensity of expression in log2 measured by high-throughput sequencing, D0 / Level of intensity of expression in log2 measured by high-throughput sequencing, D7 / Level of intensity of expression in log2 measured by high-throughput sequencing, FC / Level of intensity of expression in log2 measured by high-throughput sequencing, WD: Table VI; for Level of intensity of expression in log2 At the differentiated stage (WD) measured in HTS: healthy human airway epithelial tissue; for Level of intensity of expression in log2 measured by high-throughput sequencing, D0: stage D0; for Level of intensity of expression in log2 measured by high-throughput sequencing, D7: stage D7; for Level of intensity of expression in log2 measured by high-throughput sequencing, FC: stage FC; for Level of intensity of expression in log2 At the differentiated stage (WD) measured in HTS / Level of intensity of expression in log2 measured by high-throughput sequencing, WD: stage WD
How it was run: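 Small-RNA libraries from differentiating HAECs (ALI-D0 to ALI-WD) were built by ligation-based SOLiD chemistry, size-selected and sequenced. Strand counts were normalized per million reads, converted to percentage abundance, and filtered on adjusted P-value below 0.05.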

Row | Substance | Modulation of expression of the miRNAs in pyramidal cells (323(−)) relative to basal cells 323(+) [1] | Intensity of the level of expression in log2 in basal cells (323(+)) [1] | Intensity of the level of expression in log2 in pyramidal cells (323(−)) [1] | Modulation (ratio of the level of intensity of expression in log2 in two stages of differentiation) measured with the Agilent chips, D7 − D0 [2] | Modulation (ratio of the level of intensity of expression in log2 in two stages of differentiation) measured with the Agilent chips, FC − D7 [2] | Modulation (ratio of the level of intensity of expression in log2 in two stages of differentiation) measured with the Agilent chips, WD − D0 [2] | Modulation (ratio of the level of intensity of expression in log2 in two stages of differentiation) measured with the Agilent chips, WD − FC [2] | Level of intensity of expression in log2 measured with the Agilent chips, D0 [2] | Level of intensity of expression in log2 measured with the Agilent chips, D7 [2] | Level of intensity of expression in log2 measured with the Agilent chips, FC [2] | Level of intensity of expression in log2 measured with the Agilent chips, WD [2] | Modulation (ratio of the level of intensity of expression in log2 in two stages of differentiation) measured by high-throughput sequencing, D7 − D0 [3] | Modulation (ratio of the level of intensity of expression in log2 in two stages of differentiation) measured by high-throughput sequencing, FC − D7 [3] | Modulation (ratio of the level of intensity of expression in log2 in two stages of differentiation) measured by high-throughput sequencing, WD − D0 [3] | Modulation (ratio of the level of intensity of expression in log2 in two stages of differentiation) measured by high-throughput sequencing, WD − FC [3] | Level of intensity of expression in log2 At the differentiated stage (WD) measured in HTS [3] | Level of intensity of expression in log2 measured by high-throughput sequencing, D0 [3] | Level of intensity of expression in log2 measured by high-throughput sequencing, D7 [3] | Level of intensity of expression in log2 measured by high-throughput sequencing, FC [3] | Level of intensity of expression in log2 measured by high-throughput sequencing, WD [3] | other results
1 | hsa-let-7g: human miRNA, SEQ ID No. 162 (UGAGGUAGUAGUUUGUACAGUU; expressed or natural sequence; listed as Homo sapiens) | −0.15 | 8.37 log2 | 8.22 log2 | 1.83 log2 | −0.54 log2 | 1.50 log2 | 0.21 log2 | 9.30 log2 | 11.12 log2 | 10.59 log2 | 10.80 log2 | −0.24 log2 | −0.03 log2 | 0.56 log2 | 0.83 log2 | 12.40 log2 | 11.84 log2 | 11.60 log2 | 11.57 log2 | 12.40 log2 | Modulation (ratio of the level of intensity of expression in log2 at two stages of differentiation), FC − D7 [2]: −0.54 log2; Modulation (ratio of the level of intensity of expression in log2 at two stages of differentiation), WD − FC [2]: 0.21 log2
2 | hsa-miR-574-3p: human miRNA, SEQ ID No. 48 (CACGCUCAUGCACACACCCACA; expressed or natural sequence; listed as Homo sapiens) | 0.91 | 3.53 log2 | 4.44 log2 | 1.69 log2 | −0.46 log2 | 1.04 log2 | −0.18 log2 | 4.73 log2 | 6.42 log2 | 5.96 log2 | 5.77 log2 | 0.48 log2 | 0.12 log2 | 0.92 log2 | 0.32 log2 | 13.42 log2 | 13.64 log2 | 14.12 log2 | 14.24 log2 | 14.56 log2 | Modulation (ratio of the level of intensity of expression in log2 in two stages of differentiation), D7 − D0 ([3]; HTS): 0.48 log2; Modulation (ratio of the level of intensity of expression in log2 in two stages of differentiation), FC − D7 ([3]; HTS): 0.12 log2; Modulation (ratio of the level of intensity of expression in log2 in two stages of differentiation), WD − FC ([3]; HTS): 0.32 log2; Abundance (%), D0 ([3]; HTS, ALI-D0): 2.80%; Abundance (%), D7 ([3]; HTS, ALI-D7): 3.92%; Abundance (%), FC ([3]; HTS, ALI-FC): 4.12%; Abundance (%), WD ([3]; HTS, ALI-WD): 3.90%
3 | hsa-miR-16: human miRNA, SEQ ID No. 10 (UAGCAGCACGUAAAUAUUGGCG; expressed or natural sequence; listed as Homo sapiens) | −0.48 | 9.10 log2 | 8.62 log2 | 2.07 log2 | −0.36 log2 | 1.59 log2 | −0.11 log2 | 9.47 log2 | 11.54 log2 | 11.18 log2 | 11.06 log2 | 2.01 log2 | −1.17 log2 | 2.22 log2 | 1.38 log2 | 5.35 log2 | 3.13 log2 | 5.14 log2 | 3.97 log2 | 5.35 log2 | Modulation (ratio of the level of intensity of expression in log2 at two stages of differentiation), FC − D7 [2]: −0.36 log2; Modulation (ratio of the level of intensity of expression in log2 at two stages of differentiation), WD − FC [2]: −0.11 log2
4 | hsa-miR-224: human miRNA, SEQ ID No. 24 (CAAGUCACUAGUGGUUCCGUU; expressed or natural sequence; listed as Homo sapiens) | −2.84 | 3.65 log2 | 0.82 log2 | 2.55 log2 | −0.87 log2 | 1.68 log2 | 0.00 log2 | 6.84 log2 | 9.40 log2 | 8.52 log2 | 8.52 log2 | 1.52 log2 | −0.72 log2 | 1.63 log2 | 0.83 log2 | 14.10 log2 | 9.59 log2 | 11.12 log2 | 10.39 log2 | 11.22 log2 | Modulation (ratio of the level of intensity of expression in log2 at two stages of differentiation), FC − D7 [2]: −0.87 log2; Modulation (ratio of the level of intensity of expression in log2 at two stages of differentiation), WD − FC [2]: 0.00 log2
